“And” between values parts separate entries of the source, which are not always exact repeats. Equal values may be shown once. Read-outs that look alike come from different tables or passages of the source.
Key:
[1] = test system: coronaviral M^pros (SARS-CoV-2, FIPV, PEDV, EqCoV); format: biochemical
[2] = test system: picornavirus and norovirus M^pros (PV, HRV, EV71, NV); format: biochemical, poliovirus, human rhinovirus, enterovirus A71; conditions: cross-test against PV, EV71 and NV M^pro, 500 nM enzyme, Bis-Tris pH 7.6, 37 °C
PEDV M^pro = format: biochemical, porcine epidemic diarrhea virus (PEDV); conditions: for Km / vmax / K M: pH 7.6
SARS-CoV-2 M^pro [3] = target: T1, SARS-CoV-2 M^pro (Severe acute respiratory syndrome coronavirus 2, UniProt P0DTD1); conditions: pH 7.6
FIPV M^pro = FIPV M^pro (Feline coronavirus, UniProt Q98VG9); format: biochemical, feline infectious peritonitis virus (FIPV); conditions: pH 7.6
EqCoV M^pro = format: biochemical, equine coronavirus (EqCoV); conditions: pH 7.6
[4] = test system: coronavirus M^pros (SARS-CoV-2, FIPV, PEDV, EqCoV); format: biochemical
SARS-CoV-2 M^pro [5] = target: T1, SARS-CoV-2 M^pro
NV M^pro = NV M^pro (Norovirus, UniProt Q83883); format: biochemical; conditions: 500 nM enzyme, substrate 6-850 μM; for catalytic efficiency (kcat/KM): Table 8
Polio M^pro = Polio M^pro (Poliovirus type 1, UniProt P03300); conditions: pH 7.6
EV71 M^pro = EV71 M^pro (Human enterovirus 71, UniProt Q66478); format: biochemical, enterovirus A71 (EV71); conditions: 500 nM enzyme, substrate 6-850 μM; for catalytic efficiency (kcat/KM): Table 8
HRV M^pro = HRV M^pro (Human rhinovirus 14, UniProt P03303); format: biochemical; conditions: 500 nM enzyme, substrate 6-850 μM; for vmax: Fig. S29 Michaelis-Menten fit; for vmax / catalytic efficiency (kcat/KM): Bis-Tris pH 7.6, 37 °C; for Km: Table 7, 20 mM Bis-Tris pH 7.6, 1 mM DTT, 0.02% Tween-20, 37 °C, read 60 min; for catalytic efficiency (kcat/KM): Table 8
[6] = Fig. S32 Michaelis-Menten fit, Bis-Tris pH 7.6, 37 °C
[7] = Table 7, 20 mM Bis-Tris pH 7.6, 1 mM DTT, 0.02% Tween-20, 37 °C, read 60 min
[8] = Fig. S31 Michaelis-Menten fit, Bis-Tris pH 7.6, 37 °C

EV71 M^pro, sequence (Q66478 1549-1731 limits assumed): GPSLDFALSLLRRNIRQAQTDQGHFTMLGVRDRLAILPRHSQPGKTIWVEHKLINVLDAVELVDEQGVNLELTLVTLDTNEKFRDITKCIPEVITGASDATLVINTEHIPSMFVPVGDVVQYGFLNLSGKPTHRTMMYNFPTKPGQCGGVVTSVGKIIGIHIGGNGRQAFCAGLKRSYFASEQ
HRV M^pro, sequence (P03303 1538-1719 limits assumed): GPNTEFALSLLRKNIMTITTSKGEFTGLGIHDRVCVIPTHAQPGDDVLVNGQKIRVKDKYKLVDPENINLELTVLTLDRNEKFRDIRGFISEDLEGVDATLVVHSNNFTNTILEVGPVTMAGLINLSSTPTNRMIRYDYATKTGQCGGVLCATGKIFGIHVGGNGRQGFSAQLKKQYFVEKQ
NV M^pro, sequence (Q83883 1101-1281 limits assumed): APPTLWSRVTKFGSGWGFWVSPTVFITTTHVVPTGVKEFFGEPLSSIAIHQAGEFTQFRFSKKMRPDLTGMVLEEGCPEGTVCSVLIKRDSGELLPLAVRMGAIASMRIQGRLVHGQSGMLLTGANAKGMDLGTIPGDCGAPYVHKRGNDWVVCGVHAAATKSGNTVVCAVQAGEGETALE
Polio M^pro, sequence (P03300 1566-1748 limits assumed): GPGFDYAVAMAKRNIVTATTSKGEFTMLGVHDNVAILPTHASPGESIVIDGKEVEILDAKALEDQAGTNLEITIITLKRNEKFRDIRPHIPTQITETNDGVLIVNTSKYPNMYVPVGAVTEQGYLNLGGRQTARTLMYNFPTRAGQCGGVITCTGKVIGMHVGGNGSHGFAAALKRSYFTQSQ
FIPV M^pro, sequence (Q98VG9 2904-3205 limits assumed): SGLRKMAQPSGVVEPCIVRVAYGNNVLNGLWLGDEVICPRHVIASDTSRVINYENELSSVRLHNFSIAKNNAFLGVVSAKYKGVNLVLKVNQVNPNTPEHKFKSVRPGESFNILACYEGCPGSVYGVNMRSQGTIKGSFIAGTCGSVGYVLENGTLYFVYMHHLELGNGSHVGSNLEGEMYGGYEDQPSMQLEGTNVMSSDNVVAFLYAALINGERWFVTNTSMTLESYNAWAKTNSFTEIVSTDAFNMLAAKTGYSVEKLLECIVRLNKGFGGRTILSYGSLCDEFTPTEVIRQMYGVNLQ

Tween-20
effect on catalytic activity [1]: do not significantly reduce catalytic activity

C[S+](C)[O-] [DMSO, dimethyl sulfoxide]
decrease of enzyme activity [1]: 42–60%

2-Abz-DFHLQ↓GPY^(NO2)R [NPFRET, shorter, truncated consensus substrate proposed in the literature, reference compound]
recognition of substrate by picornaviral and noroviral main proteases [2]: lack of binding

2-Abz-VVTLQ↓SGY^(NO2)R [Blanchard-VV]
Km (PEDV M^pro): 85 ± 10 µM
vmax (PEDV M^pro): 0.360 ± 0.04 µM/s
Km (SARS-CoV-2 M^pro [3]): 64 ± 10 µM
vmax (SARS-CoV-2 M^pro [3]): 0.2927 ± 0.02 µM/s
Km (FIPV M^pro): 85 ± 15 µM
vmax (FIPV M^pro): 0.3231 ± 0.04 µM/s
Km (EqCoV M^pro): 371 ± 70 µM

2-Abz-STLAAGY^(NO2)R [(−) FRET]
recognition of substrate by coronavirus M^pros [4]: None of the investigated M^pros recognize
cleavage by SARS-CoV-2 M^pro (LCMS analysis of cleavage products) (SARS-CoV-2 M^pro [5]): no cleavage

2-Abz-NSTLQ↓SGY^(NO2)R [PEDV 2, truncated version of the PEDV FRET substrate]
k cat (PEDV M^pro): 2.6 ± 0.2 s⁻¹
K M (PEDV M^pro): 63 ± 11 µM
Km (PEDV M^pro): 63 ± 11 µM
vmax (PEDV M^pro): 0.266 ± 0.02 µM/s
vmax (EqCoV M^pro): 0.4516 µM/s

2-Abz-EFQLQ↓GKMYDY^(NO2)R [NVFRET]
vmax (NV M^pro; [6]): 0.4163 ± 0.08 µM/s
Km (NV M^pro; [7]): 613 ± 188 µM
catalytic efficiency (kcat/KM) (NV M^pro; Bis-Tris pH 7.6, 37 °C): 1300 ± 167 s⁻¹ M⁻¹
vmax (Polio M^pro): 4.136 ± 1.36 µM/s
Km (EV71 M^pro; [8]): 1.1 mM
vmax (EV71 M^pro; [8]): 1.914 ± 0.29 µM/s
Km (EV71 M^pro; [7]): 1.1 ± 0.201 mM
catalytic efficiency (kcat/KM) (EV71 M^pro; Bis-Tris pH 7.6, 37 °C): 3400 ± 455 s⁻¹ M⁻¹

2-Abz-ETLFQ↓GPVY^(NO2)R [HRFRET]
vmax (HRV M^pro): 0.5348 ± 0.08 µM/s
Km (HRV M^pro): 340 ± 49 µM
catalytic efficiency (kcat/KM) (HRV M^pro): 3000 ± 285 s⁻¹ M⁻¹
recognition of substrate by picornaviral and noroviral main proteases [2]: only specific to rhinovirus M^pro

2-Abz-EALFQ↓GPPKY^(NO2)R [EV71FRET]
vmax (HRV M^pro): 0.7709 ± 0.08 µM/s
Km (HRV M^pro): 480 ± 80 µM
catalytic efficiency (kcat/KM) (HRV M^pro): 3200 ± 405 s⁻¹ M⁻¹
Km (NV M^pro; [6]): 622 µM
vmax (NV M^pro; [6]): 1.410 ± 0.16 µM/s
Km (NV M^pro; [7]): 620 ± 153 µM
catalytic efficiency (kcat/KM) (NV M^pro; Bis-Tris pH 7.6, 37 °C): 4500 ± 515 s⁻¹ M⁻¹
Km (Polio M^pro): 1.14 mM and 1.11 mM
catalytic efficiency (kcat/KM) (Polio M^pro): 2700 ± 315 s⁻¹ M⁻¹
vmax (Polio M^pro): 1.366 ± 0.30 µM/s
Km (EV71 M^pro; [8]): 1.64 mM
vmax (EV71 M^pro; [8]): 1.029 ± 0.13 µM/s
Km (EV71 M^pro; [7]): 1.64 ± 0.261 mM
catalytic efficiency (kcat/KM) (EV71 M^pro; Bis-Tris pH 7.6, 37 °C): 1300 ± 138 s⁻¹ M⁻¹
recognition of substrate by picornaviral and noroviral main proteases [2]: somewhat more promiscuous

2-Abz-YNSTLQ↓SGY^(NO2)R [PEDV 1]
k cat (PEDV M^pro): 3.3 ± 0.3 s⁻¹
K M (PEDV M^pro): 192 ± 26 µM
Km (PEDV M^pro): 192 ± 26 µM
vmax (PEDV M^pro): 0.330 ± 0.02 µM/s
vmax (EqCoV M^pro): 0.4075 µM/s

Reference: PMC11537199 (RSC Advances, 2024)
